# Assay results from patent US20260356830A1, “COMPOUNDS FOR MODULATING RET PROTEIN” (Bristol-Myers Squibb Company, priority 2022, published 2026).
# Target: T1, CCDC6-RET (Homo sapiens, UniProt P07949+Q16204+Q96SW2)
# T1 construct: CCDC6 (natural N-terminal fusion partner, UniProt Q16204); endogenous in cells; host or cells: TPC-1 (parental, papillary thyroid carcinoma)
# Experiment: Cellular RET degradation, AlphaLISA, TPC-1 cell line
# Format: cell-based
# Conditions: for Dmax: TPC1, human, 24 h, read-out: Cell Density TPC-1/CCDC6-RET Ymax %; for DC50: read-out: Cell Density TPC-1/CCDC6-RET DC50, half-maximal degradation concentration, TPC-1 (CCDC6-RET), 24 hrs
# Method: Cellular RET degradation compound potency was determined using the bead-based luminescent amplification assay-AlphaLISA Surefire Ultra Detection Kit (Perkin-Elmer). The CCDC6-RET fusion expressing papillary thyroid carcinoma (TPC-1) cell line was selected for screening of potential degraders: Parental (TPC-1/CCDC6-RET). Cells were plated in 384 well culture plates (Greiner Bio-One) at 10,000 cells/well in 50 ul/well DMEM (Fisher Scientific) with 2% FBS serum (Gibco). […] Low normalization wells were media only and high normalization wells were cells treated with DMSO only. Treated cell plates were placed in an incubator at 37 °C and 5% CO2 for 24 hrs. At 24 hrs, cell media was removed by a FELIX automated liquid hander (Analytik Jena) and 25 ul of cell lysis buffer (provided in AlphaLisa kit) was added to each well. […] cell lysate were transferred into a 384-well microplate (Perkin Elmer) before addition of 2.5 ul AlphaLISA Acceptor Bead mix. The plates were sealed and kept at room temperature for 1 hr before addition of donor bead mixture. Donor bead addition was performed in the dark and incubated for >1 hr before AlphaLISA luminescence was measured on an Envision plate reader with an Alphascreen aperture at RT (excitation 680 nm, emission 615 nm). RET protein abundance (and therefore degradation) directly corresponds to luminescence intensity.
# Intensities were normalized relative to the average values from 16 wells containing media alone (blank-low) and 16 wells containing cells +DMSO (high). % Degradation for each well was determined using the standard equation, where
# DC50 (IC50) values for each compound tested are calculated by analyzing plots of % degradation versus compound concentration, and fitting to the standard 4-parameter logistic curve where,
# DC50 values are calculated according to the relationship,
# Compound replicates were performed in independent assays. Maximum degradation (YMax) was defined as the maximal % degradation value from the 4-parameter logistic equation, as previously described.
# T1 sequence (Q16204+P07949 fused): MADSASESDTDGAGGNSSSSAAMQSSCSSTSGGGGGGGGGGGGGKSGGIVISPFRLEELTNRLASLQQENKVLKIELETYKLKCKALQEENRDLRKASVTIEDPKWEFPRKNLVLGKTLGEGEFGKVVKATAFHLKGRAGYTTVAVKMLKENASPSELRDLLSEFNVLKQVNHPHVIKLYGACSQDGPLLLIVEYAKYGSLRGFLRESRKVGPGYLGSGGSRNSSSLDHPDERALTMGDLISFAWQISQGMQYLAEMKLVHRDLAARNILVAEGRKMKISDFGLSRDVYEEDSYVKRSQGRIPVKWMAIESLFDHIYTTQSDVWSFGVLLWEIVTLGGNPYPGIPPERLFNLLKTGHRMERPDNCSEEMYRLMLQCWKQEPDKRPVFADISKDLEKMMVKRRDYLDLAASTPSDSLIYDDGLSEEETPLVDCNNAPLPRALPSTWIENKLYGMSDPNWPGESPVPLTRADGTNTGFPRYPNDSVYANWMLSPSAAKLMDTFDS
# T1 sequence (Q96SW2 whole entry, the tested form may be a part): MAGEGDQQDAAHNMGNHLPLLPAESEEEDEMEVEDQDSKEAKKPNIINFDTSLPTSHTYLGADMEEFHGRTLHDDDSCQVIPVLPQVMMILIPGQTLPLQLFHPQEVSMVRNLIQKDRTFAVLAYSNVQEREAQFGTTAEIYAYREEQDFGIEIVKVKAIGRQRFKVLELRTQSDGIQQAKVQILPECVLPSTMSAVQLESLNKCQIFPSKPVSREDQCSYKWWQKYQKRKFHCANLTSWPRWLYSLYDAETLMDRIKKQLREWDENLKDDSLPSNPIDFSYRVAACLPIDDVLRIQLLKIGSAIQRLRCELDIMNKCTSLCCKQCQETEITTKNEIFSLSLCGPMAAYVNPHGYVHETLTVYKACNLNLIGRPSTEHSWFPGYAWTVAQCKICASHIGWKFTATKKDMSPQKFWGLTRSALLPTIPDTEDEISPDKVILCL
# T1 sequence (Q16531 whole entry partner, the tested form may be a part): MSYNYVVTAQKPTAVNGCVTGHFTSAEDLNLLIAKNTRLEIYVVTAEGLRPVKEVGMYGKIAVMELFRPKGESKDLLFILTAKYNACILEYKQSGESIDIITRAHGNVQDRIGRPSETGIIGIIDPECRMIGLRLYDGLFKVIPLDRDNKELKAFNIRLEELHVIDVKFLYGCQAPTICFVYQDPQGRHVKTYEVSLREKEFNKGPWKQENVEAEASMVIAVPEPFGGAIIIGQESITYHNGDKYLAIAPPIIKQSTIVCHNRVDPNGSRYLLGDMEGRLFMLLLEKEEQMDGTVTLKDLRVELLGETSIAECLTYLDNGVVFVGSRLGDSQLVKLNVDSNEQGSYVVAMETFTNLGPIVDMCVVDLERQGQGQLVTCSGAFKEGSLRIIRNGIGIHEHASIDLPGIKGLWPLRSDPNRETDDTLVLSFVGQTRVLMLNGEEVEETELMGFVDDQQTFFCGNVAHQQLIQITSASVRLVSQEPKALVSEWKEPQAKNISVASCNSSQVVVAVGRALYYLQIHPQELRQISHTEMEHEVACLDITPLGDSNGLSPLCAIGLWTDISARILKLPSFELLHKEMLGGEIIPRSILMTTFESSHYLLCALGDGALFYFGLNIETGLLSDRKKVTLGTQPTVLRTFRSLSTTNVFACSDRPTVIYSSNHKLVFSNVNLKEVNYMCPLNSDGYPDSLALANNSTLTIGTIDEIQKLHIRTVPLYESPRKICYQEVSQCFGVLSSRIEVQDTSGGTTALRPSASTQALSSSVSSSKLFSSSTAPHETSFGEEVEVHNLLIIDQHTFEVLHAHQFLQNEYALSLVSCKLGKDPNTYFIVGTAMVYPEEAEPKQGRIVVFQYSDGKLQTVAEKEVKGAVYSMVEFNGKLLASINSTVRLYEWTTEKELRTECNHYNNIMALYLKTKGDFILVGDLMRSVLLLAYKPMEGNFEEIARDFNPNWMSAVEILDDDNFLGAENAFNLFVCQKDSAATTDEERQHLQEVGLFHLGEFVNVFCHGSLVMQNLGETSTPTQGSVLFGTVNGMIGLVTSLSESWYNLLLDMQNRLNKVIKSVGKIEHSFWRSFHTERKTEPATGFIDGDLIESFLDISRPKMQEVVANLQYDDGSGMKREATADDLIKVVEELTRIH
SMILES,Dmax [%],DC50 [nM]
"CCOc1cc(-c2ccc(N3CCC(CN4CCN(C(=O)CCCCCCCCNc5ccc6c(N7CCC(=O)NC7=O)nn(C)c6c5)CC4)(NC(=O)c4cc(F)ccc4F)CC3)nc2)c2c(C#N)cnn2c1 [Example 24, N-[1-(5-{3-cyano-6-ethoxypyrazolo[1,5-a]pyridin-4-yl}pyridin-2-yl)-4-{[4-(9-{[3-(2,4-dioxo-1,3-diazinan-1-yl)-1-methyl-1H-indazol-6-yl]amino}nonanoyl)piperazin-1-yl]methyl}piperidin-4-yl]-2,5-difluorobenzamide]",60 to 90,10 to 100
"CCOc1cc(-c2ccc(N3CCC(CN4CCN(C(=O)CCCCCCCCNc5ccc6c(C7CCC(=O)NC7=O)nn(C)c6c5)CC4)(NC(=O)c4cc(F)ccc4F)CC3)nc2)c2c(C#N)cnn2c1 (stereo not shown) [Example 25, N-[1-(5-{3-cyano-6-ethoxypyrazolo[1,5-a]pyridin-4-yl}pyridin-2-yl)-4-{[4-(9-{[3-(2,6-dioxopiperidin-3-yl)-1-methyl-1H-indazol-6-yl]amino}nonanoyl)piperazin-1-yl]methyl}piperidin-4-yl]-2,5-difluorobenzamide]",> 90,2 to 10
"CCOc1cc(-c2ccc(N3CCC(CN4CCN(C(=O)CCCCCCCCCCCCNC(=O)COc5cccc6c5CN(C5CCC(=O)NC5=O)C6=O)CC4)(NC(=O)c4cc(F)ccc4F)CC3)nc2)c2c(C#N)cnn2c1 (stereo not shown) [Example 29, N-[1-(5-{3-cyano-6-ethoxypyrazolo[1,5-a]pyridin-4-yl}pyridin-2-yl)-4-({4-[13-(2-{[2-(2,6-dioxopiperidin-3-yl)-1-oxo-2,3-dihydro-1H-isoindol-4-yl]oxy}acetamido)tridecanoyl]piperazin-1-yl}methyl)piperidin-4-yl]-2,5-difluorobenzamide]",> 90,10 to 100
"CCOc1cc(-c2ccc(N3CCC(CN4CCN(C(=O)CCCCCCCCCCCCCCNC(=O)COc5cccc6c5CN(C5CCC(=O)NC5=O)C6=O)CC4)(NC(=O)c4cc(F)ccc4F)CC3)nc2)c2c(C#N)cnn2c1 (stereo not shown) [Example 30, N-[1-(5-{3-cyano-6-ethoxypyrazolo[1,5-a]pyridin-4-yl}pyridin-2-yl)-4-({4-[15-(2-{[2-(2,6-dioxopiperidin-3-yl)-1-oxo-2,3-dihydro-1H-isoindol-4-yl]oxy}acetamido)pentadecanoyl]piperazin-1-yl}methyl)piperidin-4-yl]-2,5-difluorobenzamide]",60 to 90,100 to 2000
"CCOc1cc(-c2ccc(N3CCC(COCCN4CCN(C(=O)CCN5CCC(c6ccc7c(c6)C(=O)N(C6CCC(=O)NC6=O)C7)CC5)CC4)(NC(=O)c4cc(F)ccc4F)CC3)nc2)c2c(C#N)cnn2c1 (stereo not shown) [Example 32, N-[1-[5-(3-cyano-6-ethoxy-pyrazolo[1,5-a]pyridin-4-yl)-2-pyridyl]-4-[2-[4-[3-[4-[2-(2,6-dioxo-3-piperidyl)-3-oxo-isoindolin-5-yl]-1-piperidyl]propanoyl]piperazin-1-yl]ethoxymethyl]-4-piperidyl]-2,5-difluoro-benzamide]",60 to 90,10 to 100
"CCOc1cc(-c2ccc(N3CCC(CN4CCN(C(=O)CCN5CCN(c6ccc7c(N8CCC(=O)NC8=O)nn(C)c7c6)CC5)CC4)(NC(=O)c4cc(F)ccc4F)CC3)nc2)c2c(C#N)cnn2c1 [Example 39, N-(1-(5-(3-cyano-6-ethoxypyrazolo[1,5-a]pyridin-4-yl)pyridin-2-yl)-4-((4-(3-(4-(3-(2,4-dioxotetrahydropyrimidin-1(2H)-yl)-1-methyl-1H-indazol-6-yl)piperazin-1-yl)propanoyl)piperazin-1-yl)methyl)piperidin-4-yl)-2,5-difluorobenzamide]",60 to 90,< 2

# Further lines, results first:
Dmax [%],DC50 [nM],SMILES
> 90,2 to 10,"CCOc1cc(-c2ccc(N3CCC(CN4CCN(C(=O)CCCCNC(=O)COc5cccc6c5CN(C5CCC(=O)NC5=O)C6=O)CC4)(NC(=O)c4cc(F)ccc4F)CC3)nc2)c2c(C#N)cnn2c1 (stereo not shown) [Example 26, N-[1-(5-{3-cyano-6-ethoxypyrazolo[1,5-a]pyridin-4-yl}pyridin-2-yl)-4-({4-[5-(2-{[2-(2,6-dioxopiperidin-3-yl)-1-oxo-2,3-dihydro-1H-isoindol-4-yl]oxy}acetamido)pentanoyl]piperazin-1-yl}methyl)piperidin-4-yl]-2,5-difluorobenzamide]"
60 to 90,2 to 10,"CCOc1cc(-c2ccc(N3CCC(CN4CCN(C(=O)CCCCCCNC(=O)COc5cccc6c5CN(C5CCC(=O)NC5=O)C6=O)CC4)(NC(=O)c4cc(F)ccc4F)CC3)nc2)c2c(C#N)cnn2c1 (stereo not shown) [Example 27, N-[1-(5-{3-cyano-6-ethoxypyrazolo[1,5-a]pyridin-4-yl}pyridin-2-yl)-4-({4-[7-(2-{[2-(2,6-dioxopiperidin-3-yl)-1-oxo-2,3-dihydro-1H-isoindol-4-yl]oxy}acetamido)heptanoyl]piperazin-1-yl}methyl)piperidin-4-yl]-2,5-difluorobenzamide]"
60 to 90,10 to 100,"CCOc1cc(-c2ccc(N3CCC(CN4CCN(C(=O)CCCCCCCCCCNC(=O)COc5cccc6c5CN(C5CCC(=O)NC5=O)C6=O)CC4)(NC(=O)c4cc(F)ccc4F)CC3)nc2)c2c(C#N)cnn2c1 (stereo not shown) [Example 28, N-[1-(5-{3-cyano-6-ethoxypyrazolo[1,5-a]pyridin-4-yl}pyridin-2-yl)-4-({4-[11-(2-{[2-(2,6-dioxopiperidin-3-yl)-1-oxo-2,3-dihydro-1H-isoindol-4-yl]oxy}acetamido)undecanoyl]piperazin-1-yl}methyl)piperidin-4-yl]-2,5-difluorobenzamide]"
60 to 90,2 to 10,"CCOc1cc(-c2ccc(N3CCC(COCC(=O)NCCCCN4CCN(c5ccc6c(c5)CN(C5CCC(=O)NC5=O)C6=O)CC4)(NC(=O)c4cc(F)ccc4F)CC3)nc2)c2c(C#N)cnn2c1 (stereo not shown) [Example 31, N-[1-[5-(3-cyano-6-ethoxy-pyrazolo[1,5-a]pyridin-4-yl)-2-pyridyl]-4-[[2-[4-[4-[2-(2,6-dioxo-3-piperidyl)-1-oxo-isoindolin-5-yl]piperazin-1-yl]butylamino]-2-oxo-ethoxy]methyl]-4-piperidyl]-2,5-difluoro-benzamide]"
60 to 90,2 to 10,"CCOc1cc(-c2ccc(N3CCC(COCCN4CCN(C(=O)CCN5CCN(c6ccc7c(c6)C(=O)N(C6CCC(=O)NC6=O)C7)CC5)CC4)(NC(=O)c4cc(F)ccc4F)CC3)nc2)c2c(C#N)cnn2c1 (stereo not shown) [Example 33, N-[1-[5-(3-cyano-6-ethoxy-pyrazolo[1,5-a]pyridin-4-yl)-2-pyridyl]-4-[2-[4-[3-[4-[2-(2,6-dioxo-3-piperidyl)-3-oxo-isoindolin-5-yl]piperazin-1-yl]propanoyl]piperazin-1-yl]ethoxymethyl]-4-piperidyl]-2,5-difluoro-benzamide]"
> 90,10 to 100,"CCOc1cc(-c2ccc(N3CCC(COCCN4CCN(C(=O)CCN5CCN(c6ccc7c(c6)CN(C6CCC(=O)NC6=O)C7=O)CC5)CC4)(NC(=O)c4cc(F)ccc4F)CC3)nc2)c2c(C#N)cnn2c1 (stereo not shown) [Example 34, N-[1-[5-(3-cyano-6-ethoxy-pyrazolo[1,5-a]pyridin-4-yl)-2-pyridyl]-4-[2-[4-[3-[4-[2-(2,6-dioxo-3-piperidyl)-1-oxo-isoindolin-5-yl]piperazin-1-yl]propanoyl]piperazin-1-yl]ethoxymethyl]-4-piperidyl]-2,5-difluoro-benzamide]"
> 90,10 to 100,"CCOc1cc(-c2ccc(N3CCC(COCCN4CCN(C(=O)CCCCN5CCN(c6ccc7c(c6)CN(C6CCC(=O)NC6=O)C7=O)CC5)CC4)(NC(=O)c4cc(F)ccc4F)CC3)nc2)c2c(C#N)cnn2c1 (stereo not shown) [Example 35, N-[1-[5-(3-cyano-6-ethoxy-pyrazolo[1,5-a]pyridin-4-yl)-2-pyridyl]-4-[2-[4-[5-[4-[2-(2,6-dioxo-3-piperidyl)-1-oxo-isoindolin-5-yl]piperazin-1-yl]pentanoyl]piperazin-1-yl]ethoxymethyl]-4-piperidyl]-2,5-difluoro-benzamide]"
> 90,< 2,"CCOc1cc(-c2ccc(N3CCC(COCC(=O)NCCCCCCN4CCN(c5ccc6c(c5)CN(C5CCC(=O)NC5=O)C6=O)CC4)(NC(=O)c4cc(F)ccc4F)CC3)nc2)c2c(C#N)cnn2c1 (stereo not shown) [Example 38, N-[1-[5-(3-cyano-6-ethoxy-pyrazolo[1,5-a]pyridin-4-yl)-2-pyridyl]-4-[[2-[6-[4-[2-(2,6-dioxo-3-piperidyl)-1-oxo-isoindolin-5-yl]piperazin-1-yl]hexylamino]-2-oxo-ethoxy]methyl]-4-piperidyl]-2,5-difluoro-benzamide]"
